# Experiments:
# Rhizopus arrhizus = experiment: Antifungal activity against Rhizopus oryzae; type: functional
# Staphylococcus aureus [1] = experiment: Antibacterial activity against Staphylococcus aureus; type: functional
# [2] = tested on: Mycobacterium tuberculosis; experiment: Antimycobacterial activity against Mycobacterium tuberculosis; type: functional
# [3] = tested on: Mycobacterium tuberculosis; experiment: microbe, parasite or virus in culture; conditions: 120 h
# Huh-7 = experiment: Cytotoxicity against human Huh-7 cells; type: functional, cell-based
# HepG2 [4] = experiment: Cytotoxicity against human HepG2 cells; type: functional, cell-based
# Candida albicans [5] = experiment: Antifungal activity against Candida albicans by agar dilution method; type: functional
# Pseudomonas aeruginosa [6] = experiment: Potency index, ratio of ampicillin MIC to compound MIC for Pseudomonas aeruginosa by agar dilution method; type: functional
# Escherichia coli [7] = experiment: Potency index, ratio of ampicillin MIC to compound MIC for Escherichia coli by agar dilution method; type: functional
# Escherichia coli [8] = experiment: Antibacterial activity against Escherichia coli by agar dilution method; type: functional
# Bacillus subtilis [9] = experiment: Antibacterial activity against Bacillus subtilis by agar dilution method; type: functional
# Staphylococcus aureus [10] = experiment: Antibacterial activity against Staphylococcus aureus by agar dilution method; type: functional
# Pseudomonas aeruginosa [11] = experiment: Antibacterial activity against Pseudomonas aeruginosa by agar dilution method; type: functional
# HepG2 [12] = experiment: Cytotoxicity against human HepG2 cells assessed as growth inhibition; type: functional, cell-based
# Bacillus subtilis [13] = experiment: Antibacterial activity against Bacillus subtilis ATCC 6633 by plate dilution method; type: functional
# [14] = tested on: Staphylococcus epidermidis; experiment: Antibacterial activity against Staphylococcus epidermidis ATCC 12228 by plate dilution method; type: functional
# Pseudomonas aeruginosa [15] = experiment: Antibacterial activity against Pseudomonas aeruginosa ATCC 27853 by plate dilution method; type: functional
# Bacillus cereus = experiment: Antibacterial activity against Bacillus cereus ATCC 9946 by plate dilution method; type: functional
# Proteus vulgaris = experiment: Antibacterial activity against Proteus vulgaris ATCC 9920 by plate dilution method; type: functional
# [16] = tested on: Bordetella bronchiseptica; experiment: Antibacterial activity against Bordetella bronchiseptica ATCC 4617 by plate dilution method; type: functional
# Klebsiella pneumoniae = experiment: Antibacterial activity against Klebsiella pneumoniae ATCC 700603 by plate dilution method; type: functional
# Escherichia coli [17] = experiment: Antibacterial activity against Escherichia coli ATCC 25922 by plate dilution method; type: functional
# Enterococcus faecalis = experiment: Antibacterial activity against Enterococcus faecalis ATCC 29212 by plate dilution method; type: functional
# Staphylococcus aureus [18] = experiment: Antibacterial activity against Staphylococcus aureus ATCC 25923 by plate dilution method; type: functional
# Escherichia coli [19] = experiment: Antibacterial activity against Escherichia coli incubated for 24 hrs by disc diffusion method; type: functional
# Aspergillus niger [20] = experiment: Antifungal activity against Aspergillus niger incubated for 24 hrs by disc diffusion method; type: functional
# Aspergillus fumigatus = experiment: Antifungal activity against Aspergillus fumigatus incubated for 24 hrs by disc diffusion method; type: functional
# Pseudomonas aeruginosa [21] = experiment: microbe, parasite or virus in culture; conditions: 24 h
# Staphylococcus aureus [22] = experiment: microbe, parasite or virus in culture; conditions: 24 h
# Candida albicans [23] = experiment: microbe, parasite or virus in culture; conditions: 24 h
# Candida albicans [24] = experiment: microbe, parasite or virus in culture
# Aspergillus flavus = experiment: Antifungal activity against Aspergillus flavus incubated for 24 hrs by disc diffusion method; type: functional
# Staphylococcus aureus [25] = experiment: microbe, parasite or virus in culture
# Bacillus subtilis [26] = experiment: microbe, parasite or virus in culture; conditions: 24 h
# HepG2 [27] = experiment: cells; conditions: Homo sapiens
# Mus musculus [28] = organism: Mus musculus; experiment: Antidepressant activity in mouse assessed as […] by tail suspension test; type: functional
# Mus musculus [29] = organism: Mus musculus; experiment: Antidepressant activity in mouse assessed as […] by forced swimming test; type: functional
# Mus musculus [30] = organism: Mus musculus; experiment: Antianxiety activity in mouse assessed as increase in number of entries in different arms; type: functional
# Plasmodium berghei = experiment: Antimalarial activity against Plasmodium berghei infected in mouse assessed as suppression percentage at 48.46 umol/kg administered daily relative to control; type: functional; conditions: dose 48.46 µmol/kg
# DU-145 = experiment: Cytotoxicity against human DU-145 cells by SRB assay; type: functional
# Tubulin (Homo sapiens) = Tubulin (Homo sapiens) (UniProt P68371+Q9H4B7+P0DPH7+P68366+Q13509+Q71U36+P04350+Q3ZCM7+P07437+P68363+Q9BQE3+Q6PEY2+Q13885+Q9BVA1+Q9BUF5); experiment: Inhibition of tubulin polymerization (unknown origin) by fluorescence assay relative to control; type: protein-complex assay; conditions: concentration not given here
# Aspergillus niger [31] = experiment: Antifungal activity against Aspergillus niger by agar dilution method; type: functional
# RAW264.7 [32] = experiment: Cytotoxicity against mouse RAW264.7 cells relative to control; type: functional
# RAW264.7 [33] = experiment: Antiinflammatory activity in LPS-induced mouse RAW264.7 cells assessed as inhibition of LPS induced NO production; type: functional, cell-based
# [34] = Cytotoxicity against human HGF cells assessed as reduction in cell viability incubated for 48 hrs by MTT assay; type: functional
# Ca9-22 = experiment: Cytotoxicity against human Ca9-22 cells assessed as reduction in cell viability incubated for 48 hrs by MTT assay; type: functional
# HSC-3 = experiment: Cytotoxicity against human HSC-3 cells assessed as reduction in cell viability incubated for 48 hrs by MTT assay; type: functional
# HSC-2 = experiment: Cytotoxicity against human HSC-2 cells assessed as reduction in cell viability incubated for 48 hrs by MTT assay; type: functional
# [35] = Cytotoxicity against human HPLF cells assessed as reduction in cell viability incubated for 48 hrs by MTT assay; type: functional
# MCF7 = experiment: cells; conditions: Homo sapiens
# [36] = Cytotoxicity against human HPC cells assessed as reduction in cell viability incubated for 48 hrs by MTT assay; type: functional
structure (smiles),measurement,setting,value
COc1ccc(C2CC(c3cc4ccccc4oc3=O)=NN2c2ccccc2)cc1OC (stereo unspecified),MIC,Rhizopus arrhizus,12.5 µg/mL
same,MIC,Staphylococcus aureus [1],12.5 µg/mL
COc1ccc2c(c1)C1=NN(CCCN(C)C)C3=CC=C([N+](=O)[O-])C(N2)C31 (stereo unspecified),MIC,[2],3.12 µg/mL
same,MIC,[3],3.12 µg/mL
N#Cc1c(-c2ccc(F)cc2)nc(N2N=C(c3c4ccccc4cc4ccccc34)CC2c2ccc(F)cc2)[nH]c1=O (stereo unspecified),IC50,Huh-7,6.13 µg/mL
same,IC50,HepG2 [4],5.34 µg/mL
Cc1cccc2cc(C3CC(c4cc(Br)ccc4O)=NN3)c3nnnn3c12 (stereo unspecified),MIC,Candida albicans [5],25 µg/mL
same,Ratio,Pseudomonas aeruginosa [6],2
COc1cccc2cc(C3CC(c4cc(Br)ccc4O)=NN3)c3nnnn3c12 (stereo unspecified),Ratio,Pseudomonas aeruginosa [6],2
Oc1ccc(Br)cc1C1=NNC(c2cc3ccccc3n3nnnc23)C1 (stereo unspecified),Ratio,Escherichia coli [7],2
same,MIC,Escherichia coli [8],50 µg/mL
same,MIC,Bacillus subtilis [9],25 µg/mL
same,MIC,Staphylococcus aureus [10],25 µg/mL
same,MIC,Pseudomonas aeruginosa [11],50 µg/mL
same,Ratio,Pseudomonas aeruginosa [6],2
COc1cc(C2CC(c3c4ccccc4cc4ccccc34)=NN2c2nc(-c3ccc(F)cc3)c(C#N)c(=O)[nH]2)cc(OC)c1OC (stereo unspecified),IC50,Huh-7,4.78 µg/mL
Fc1ccc(-c2csc(N3N=C(c4cccs4)CC3c3ccc(Cl)cc3Cl)n2)cc1 (stereo unspecified),IC50,HepG2 [12],1.7 µM
O=c1oc2ccc(F)cc2cc1-c1csc(N2N=C(c3ccccc3F)CC2c2cc3ccccc3nc2Cl)n1 (stereo unspecified),MIC,Bacillus subtilis [13],50 µg/mL
same,MIC,[14],50 µg/mL
same,MIC,Pseudomonas aeruginosa [15],50 µg/mL
same,MIC,Bacillus cereus,50 µg/mL
same,MIC,Proteus vulgaris,50 µg/mL
same,MIC,[16],50 µg/mL
same,MIC,Klebsiella pneumoniae,50 µg/mL
same,MIC,Escherichia coli [17],50 µg/mL
same,MIC,Enterococcus faecalis,50 µg/mL
same,MIC,Staphylococcus aureus [18],50 µg/mL
OC(Cn1cncn1)(Cn1cncn1)c1ccc(F)cc1F [FLUCONAZOLE],MIC,Escherichia coli [19],30 µg/mL
same,MIC,Aspergillus niger [20],30 µg/mL
same,MIC,Aspergillus fumigatus,30 µg/mL
same,MIC,Pseudomonas aeruginosa [21],30 µg/mL
same,MIC,Staphylococcus aureus [22],30 µg/mL
same,MIC,Candida albicans [23],30 µg/mL
same,MIC,Candida albicans [24],< 10 µg/mL
same,MIC,Aspergillus flavus,30 µg/mL
same,MIC,Staphylococcus aureus [25],< 10 µg/mL
same,MIC,Bacillus subtilis [26],30 µg/mL
CC(=O)N1N=C(c2nnn(-c3ccc(-n4nnc(C5=NN(C(C)=O)C(c6ccccc6)C5)c4C)cc3)c2C)CC1c1ccccc1 (stereo unspecified),IC50,HepG2 [27],57.1 µg/mL
CN(C)c1ccc(C2CC(c3c4ccccc4cc4ccccc34)=NN2c2nc(-c3ccc(F)cc3)c(C#N)c(=O)[nH]2)cc1 (stereo unspecified),IC50,HepG2 [4],4.21 µg/mL
O=c1oc2ccc(F)cc2cc1-c1csc(N2N=C(c3cccc(F)c3)CC2c2cc3ccccc3nc2Cl)n1 (stereo unspecified),MIC,Bacillus subtilis [13],50 µg/mL
same,MIC,[14],50 µg/mL
same,MIC,Pseudomonas aeruginosa [15],50 µg/mL
same,MIC,Bacillus cereus,50 µg/mL
same,MIC,Proteus vulgaris,50 µg/mL
same,MIC,[16],50 µg/mL
same,MIC,Klebsiella pneumoniae,50 µg/mL
same,MIC,Escherichia coli [17],50 µg/mL
same,MIC,Enterococcus faecalis,50 µg/mL
same,MIC,Staphylococcus aureus [18],50 µg/mL
Oc1ccc(C2=NNC(c3ccc(Cl)cc3)C2)cc1 (stereo unspecified),Time,Mus musculus [28],21.17 s
same,Time,Mus musculus [29],21.17 s
same,Activity,Mus musculus [30],17.67
Cc1ccc(-c2nn(-c3ccccc3)cc2C2CC(c3cccs3)=NN2)cc1 (stereo unspecified),Activity,Plasmodium berghei,63.4%
COc1cc(C2CC(c3ccccc3O)=NN2c2cc3ccccc3s2)cc(OC)c1O (stereo unspecified),IC50,HepG2 [27],3.57 µM
COc1ccc(C2CC(c3ccc(O)cc3)=NN2)cc1OC (stereo unspecified),Time,Mus musculus [28],21.17 s
same,Time,Mus musculus [29],21.17 s
same,Activity,Mus musculus [30],15.5
COc1ccc(/C=C/C(=O)c2cc(OC)c(OC)c(OC)c2)cc1OCc1cn(Cc2ccc(F)cc2)nn1,GI50,DU-145,1.3 µM
same,inhibition,Tubulin (Homo sapiens),51%
Cc1ccc2c(c1)cc(C1CC(c3cc(Br)ccc3O)=NN1)c1nnnn12 (stereo unspecified),MIC,Aspergillus niger [31],25 µg/mL
C[C@]12CC[C@H]3[C@@H](CC=C4C[C@@H](O)CC[C@@]43C)[C@@H]1CC[C@@H]2C1=NN(C(N)=S)C(c2ccccc2Cl)C1 (stereo partly specified),Activity,RAW264.7 [32],>90%
same,IC50,RAW264.7 [33],0.86 µM
O=c1[nH]cc(F)c(=O)[nH]1 [FLUOROURACIL],CC50,[34],13 µM
same,CC50,Ca9-22,13 µM
same,CC50,HSC-3,13 µM
same,CC50,HSC-2,13 µM
same,CC50,[35],13 µM
same,IC50,MCF7,30 µg/mL
same,CC50,[36],13 µM
same,IC50,HepG2 [27],33.5 µg/mL
Clc1ccc(-c2csc(N3N=C(c4cccs4)CC3c3ccc(Cl)cc3Cl)n2)cc1 (stereo unspecified),IC50,HepG2 [12],2.98 µM

# Reference: ChEMBL document CHEMBL5260848, “Recent advancements in the development of bioactive pyrazoline derivatives” (Eur J Med Chem, 2020)
